# Measurements published in patent US20120009152A1, “NITRIC OXIDE DONORS FOR TREATMENT OF DISEASE AND INJURY” (priority 2002, published 2012).
# What was measured:
# [1] = system: rats subjected to embolic MCA occlusion; test: Adhesive removal test after embolic MCA occlusion, SNAP study; format: in vivo, rat; conditions: SNAP at 24 hours after MCA occlusion; by 4 days after stroke, persisted to 14 days
# Method: (§1) The question arises as to the specificity of this NO agent for the induction of neurogenesis and functional benefit. Are the effects specific for DETA/NONOate or would other agents that donate NO likewise provide functional benefit? To test this question, rats were treated with another NO donor, S-nitroso-N-acetylpenicillamine (SNAP, Sigma) that is structurally different from DETA/NONOate. Young, male adult Wistar rats were subjected to embolic MCA occlusion (Zhang et al., 1997). SNAP at a dose of 30 μg/kg was intravenously administered to rats as a bolus followed by 300 μg/kg/h infusion for 60 minutes at 24 hours after embolic MCA occlusion. As functional outcome measures, the rotarod test which assesses motor function such as coordination and balance (Zhang et al., 2000), the adhesive removal test which measures forelimb somato-sensorimotor asymmetries (Schallert et al., 2000), and animal body weight were measured prior to treatment and at 2, 4, 7, and 14 days after treatment. Animals were sacrificed at 14 days after stroke and the infarct volume was measured (Zhang, et al., 1997). […] These benefits persisted to the time of sacrifice at 14 days post stroke. […] Thus, the effect of the treatment is one of restorative therapy not neuroprotective therapy. […] Functional improvement in these animals is associated with change and remodeling of brain. […]
# [2] = system: rats subjected to embolic MCA occlusion; test: Infarct volume after embolic MCA occlusion, SNAP study; format: in vivo, rat; conditions: SNAP 30 μg/kg iv bolus then 300 μg/kg/h for 60 minutes at 24 hours after MCA occlusion; 14 days; vs saline
# Method: as §1
# [3] = system: rats subjected to embolic MCA occlusion; test: Rotarod test after embolic MCA occlusion, SNAP study; format: in vivo, rat; conditions: SNAP at 24 hours after MCA occlusion; by 4 days after stroke, persisted to 14 days
# Method: as §1
# [4] = Animal body weight after embolic MCA occlusion, SNAP study; format: in vivo, rat; conditions: SNAP at 24 hours after MCA occlusion; 7 days after stroke; vs saline
# Method: as §1
# [5] = system: Mouse brain-derived endothelial cells; test: Capillary-like tube formation assay; format: cell-based
# Method: An in vitro angiogenesis assay was performed. Briefly, 0.8 ml of growth factor reduced Matrigel (Becton Dickinson) was added to pre-chilled 35 mm culture dishes and allowed to polymerize at 37° C. for 2 to 5 hours. […] For quantitative measurements of capillary tube formation, three random areas of Matrigel dishes were imaged and the length of continuous cords of three or more cells was measured.
# [6] = system: cGMP; conditions: local administration to rat brain slices; cited from earlier work
# [7] = system: basilar artery; conditions: rats; cited from earlier work
# [8] = system: dog cerebral arteries; conditions: cited from earlier work
smiles,measurement,setting,value
"CC(=O)N[C@H](C(=O)O)C(C)(C)SN=O (racemic) [SNAP, S-nitroso-N-acetylpenicillamine]",function measured with the adhesive removal test,[1],significant improvement
same,volume of cerebral infarction,[2],no significant difference
same,function measured with the rotarod,[3],significant improvement
same,Animal body weight,[4],significantly increased
"Nc1nc2c(nc(Br)n2[C@@H]2O[C@@H]3COP(=O)(O)O[C@H]3[C@H]2O)c(=O)[nH]1 [8-BrcGMP, 8-Br-cGMP]",capillary-like tube formation,[5]; 8-BrcGMP 1 mM,significantly (p<0.05) increased
"O=c1onc2cnc3ccccc3n12 [ODQ, 1H-[1,2,4]oxadiazolo[4,3-a]quinoxaline-1-one]",inhibition of DETANONOate-induced capillary-like tube formation,[5]; DETANONOate in the presence of ODQ,completely inhibited
same,inhibition of 8-BrcGMP-induced capillary-like tube formation,[5]; ODQ,did not significantly inhibit
same,inhibition of Sildenafil-induced capillary-like tube formation,"[5]; ODQ 10 μM, Sildenafil 300 nM",significantly inhibited
CCCOc1ccccc1-c1nc2nn[nH]c2c(=O)[nH]1 [zaprinast],cGMP release,[6],increase of cGMP release
same,dilatation of the basilar artery,[7],elicits dilatation of the basilar artery
same,dilatation of cerebral arteries,[8],produces dilatation of dog cerebral arteries
